Experimental data as given in patent publication US4743677A, “Calcitonin gene related peptide derivatives” (Toyo Jozo Co., Ltd., priority 1985, dated 1988).

Tests used:
[1] = Serum phosphorus level lowering effect in rats (method of Goldenberg et al.); type: in vivo; details: 80 μg/kg through tail vein, Wistar rats; for drop of serum phosphorus concentration compared with control group: blood at 30 and 60 minutes, control = dissolving solution only; for serum phosphorus concentration compared with h-CGRP administered group: versus h-CGRP 80 μg/kg
Procedure: (§1) h-CGRP, desalanyl-deamino-h-CGRP and desalanyl-[Asu^2,7 ] -h-CGRP, each 80 μg, were dissolved in 1 ml of a citrate buffer (pH 6.5) containing 0.1% of bovine serum albumin (hereinafter called "dissolving solution") and then administered to a group of 5-6 Wistar rats (80-90 g) at 80 μg/kg through their tail veins. Upon elapsed time of 30 minutes and 60 minutes, blood samples were collected from their abdominal descending aortas. The serum calcium concentrations were measured by atomic absorption spectrophotometry while the serum phosphorus concentrations were determined the method proposed by Goldenberg et al. [Clin Chem., 12, 871-882 (1966)] .

[2] = Stability in an aqueous solution; type: physicochemical
[3] = Serum calcium level lowering effect in rats (atomic absorption spectrophotometry); type: in vivo; details: 80 μg/kg through tail vein, Wistar rats; for drop of serum calcium concentration compared with control group: blood at 30 and 60 minutes, control = dissolving solution only; for serum calcium concentration compared with h-CGRP administered group: versus h-CGRP 80 μg/kg
Procedure: as §1

[4] = Isoelectric point (pI) of the purified peptide; type: physicochemical; details: purified product

| stability in an aqueous solution [2] | pI [4] | Structure (SMILES) | drop of serum phosphorus concentration compared with control group [1] | serum phosphorus concentration compared with h-CGRP administered group [1] | drop of serum calcium concentration compared with control group [3] | serum calcium concentration compared with h-CGRP administered group [3] | activity exhibiting time (serum phosphorus lowering) compared with h-CGRP ([1]; 30 and 60 minutes) | activity exhibiting time (serum calcium lowering) compared with h-CGRP ([3]; 30 and 60 minutes) |
| --- | --- | --- | --- | --- | --- | --- | --- | --- |
| extremely good stability | ≥ 10.25 | CC(C)C[C@H](NC(=O)CNC(=O)[C@H](C)NC(=O)[C@H](CC(C)C)NC(=O)[C@H](CCCNC(=N)N)NC(=O)[C@H](Cc1c[nH]cn1)NC(=O)[C@@H](NC(=O)[C@@H](NC(=O)[C@@H]1CCCCCC(=O)N[C@@H](CC(=O)O)C(=O)N[C@@H]([C@@H](C)O)C(=O)N[C@@H](C)C(=O)N[C@@H]([C@@H](C)O)C(=O)N1)C(C)C)[C@@H](C)O)C(=O)N[C@@H](CC(C)C)C(=O)N[C@@H](CO)C(=O)N[C@@H](CCCNC(=N)N)C(=O)N[C@@H](CO)C(=O)NCC(=O)NCC(=O)N[C@H](C(=O)N[C@H](C(=O)N[C@@H](CCCCN)C(=O)N[C@@H](CC(N)=O)C(=O)N[C@@H](CC(N)=O)C(=O)N[C@@H](Cc1ccccc1)C(=O)N[C@H](C(=O)N1CCC[C@H]1C(=O)N[C@H](C(=O)N[C@@H](CC(N)=O)C(=O)N[C@H](C(=O)NCC(=O)N[C@@H](CO)C(=O)N[C@@H](CCCCN)C(=O)N[C@@H](C)C(=O)N[C@@H](Cc1ccccc1)C(N)=O)C(C)C)[C@@H](C)O)C(C)C)C(C)C)C(C)C [desalanyl-[Asu^2,7]-h-CGRP] | about 20% | dropped with significance | about 20% | dropped with significance |  |  |
|  | ≥ 10.25 | CC(C)C[C@H](NC(=O)CNC(=O)[C@H](C)NC(=O)[C@H](CC(C)C)NC(=O)[C@H](CCCNC(=N)N)NC(=O)[C@H](Cc1c[nH]cn1)NC(=O)[C@@H](NC(=O)[C@@H](NC(=O)[C@@H]1CSSCCC(=O)N[C@@H](CC(=O)O)C(=O)N[C@@H]([C@@H](C)O)C(=O)N[C@@H](C)C(=O)N[C@@H]([C@@H](C)O)C(=O)N1)C(C)C)[C@@H](C)O)C(=O)N[C@@H](CC(C)C)C(=O)N[C@@H](CO)C(=O)N[C@@H](CCCNC(=N)N)C(=O)N[C@@H](CO)C(=O)NCC(=O)NCC(=O)N[C@H](C(=O)N[C@H](C(=O)N[C@@H](CCCCN)C(=O)N[C@@H](CC(N)=O)C(=O)N[C@@H](CC(N)=O)C(=O)N[C@@H](Cc1ccccc1)C(=O)N[C@H](C(=O)N1CCC[C@H]1C(=O)N[C@H](C(=O)N[C@@H](CC(N)=O)C(=O)N[C@H](C(=O)NCC(=O)N[C@@H](CO)C(=O)N[C@@H](CCCCN)C(=O)N[C@@H](C)C(=O)N[C@@H](Cc1ccccc1)C(N)=O)C(C)C)[C@@H](C)O)C(C)C)C(C)C)C(C)C [desalanyl-deamino-h-CGRP] | about 20% | dropped with significance | about 20% | dropped with significance | prolonged | prolonged |
